We go through seven compounds from US20260242359A1, “IRHOM2 INHIBITORS AND USES THEREOF” (NEW YORK SOCIETY FOR THE RELIEF OF THE RUPTURED AND …, priority 2023, published 2026).

This assay concerns LPS-induced release of endogenous TNFα from human THP-1 macrophage cells. Kind of assay: Example 12: ELISA-based TNFα release assay, LPS-induced, THP-1 macrophage cells. As to conditions: for inhibition at 10 µM: Homo sapiens, THP-1, 2 h, read-out: inhibition of LPS-induced release of TNFα from THP-1 cells. The class given is cell-based. On the procedure: In the following study, ELISA-based TNFα release assay was performed to verify the inhibitory effects of Compounds 1, 2, 3, 4, 5, and 7 on LPS-induced release of endogenous TNFα from human THP-1 macrophage cells. The ELISA-based TNFα release assay that was used in this example is described below.
In brief, on day 1, Nunc black MaxiSorp® 96-well plates (Thermo Fisher Scientific, USA) were coated overnight with 100 μl per well of mouse anti-human TNFα capture antibody (provided as part of the DuoSet ELISA kit) at 4 μg/ml TBS at 4° C. On day 2, the capture antibody solution was removed and MaxiSorp® plates were blocked with 300 μl per well of TBS, 1% BSA at room temperature for 3 hours. Meanwhile, 20,000 THP-1 (American Type Culture Collection, USA) cells in 80 μl of normal growth medium were seeded in each well of Greiner CELLSTAR V-bottom 96-well plates (Thermo Fisher Scientific, USA) and pre-incubated with 20 μl per well of standard growth medium supplemented with Batimastat (BB94, Abcam, UK) at 50 μM as positive control (for a final concentration of 10 μM in the resulting 100 μl sample volume), compounds of the invention at 50 μM (for a final concentration of 10 μM in the resulting 100 μl sample volume) and in case of Buffer stimulated and unstimulated controls with DMSO (Carl Roth, Germany) at 50 μM (for a final concentration of 10 μM in the resulting 100 μl sample volume) at 37° C., 5% CO2 for 30 minutes. Subsequently, cells (except those for unstimulated controls) were stimulated with 20 μl per well of LPS (Sigma-Aldrich, USA) at 300 ng/ml growth medium for a final concentration of 50 ng/ml at 37° C., 5% CO2 for 2 hours. Afterwards, the 96-well plates were centrifuged to pellet cells. In parallel, blocking buffer was removed from the MaxiSorp® plates and plates were washed 4 times with 350 μl per well of TBS-T (Carl Roth, Germany) on a 96-head plate washer (Tecan Group, Switzerland). To avoid drying-up, 30 μl of TBS were added to each well of the MaxiSorp® plates immediately, followed by the transfer of 70 μl of cell-free supernatant per sample. Additionally, 100 μl of recombinant human TNFα protein (provided as part of the DuoSet ELISA kit) diluted in TBS at defined concentrations were added to the plate as standard references. Thereafter, 100 μl per well of biotinylated goat anti-human TNFα detection antibody (provided as part of the DuoSet ELISA kit) at 50 ng/ml TBS were added and, protected from direct light, plates were incubated at room temperature for 2 hours. After 4 times washing with 350 μl per well of TBS-T (Carl Roth, Germany) on a 96-head plate washer (Tecan Group, Switzerland) and careful removal of all buffer traces after the fourth cycle, 100 μl of streptavidin-AP (R&D Systems, USA) diluted 1:10,000 in TBS were added to each well and, again protected from direct light, plates were incubated at room temperature for 30 minutes. Following another round of 4 times washing with 350 μl per well of TBS-T (Carl Roth, Germany) on a 96-head plate washer (Tecan Group, Switzerland) and careful removal of all buffer traces after the fourth cycle, 100 μl of AttoPhos substrate solution (Promega, USA) was added for incubation in the dark at room temperature for 1 hour. Using an infinite M1000 PRO (Tecan Group, Switzerland) microplate reader, the fluorescence of each well was collected at an excitation wavelength of 435 nm and an emission wavelength of 555 nm.
The delta between Buffer stimulated and Buffer unstimulated was defined 100% inhibition.
For orientation: ELISA stands for enzyme-linked immunosorbent assay.

Where [1] appears, read: 10 μM final concentration, LPS 50 ng/ml, 2 hours, delta Buffer stimulated vs unstimulated = 100% inhibition.

Read-outs that look alike come from different tables or passages of the source.

What is called inhibition is the drop in the measured response relative to a control, in per cent. For `CNC(=O)[C@H](Cc1ccccc1)NC(=O)[C@H](CC(C)C)[C@H](CSc1cccs1)C(=O)NO` [Batimastat, reference compound], under setting [1], the “inhibition of LPS-induced release of TNFα from THP-1 cells” value stood at 94.9% and the inhibition at 10 µM came out at 87.4%.

Consider `CCC(=O)NCCc1c(/C=C2/C(=O)NC(=O)N(c3ccc(C)cc3C)C2=O)[nH]c2ccccc12` [Compound 1], for which the inhibition at 10 µM is 100%. With `CCOC(=O)c1ccc(Nc2nc3nonc3n3nnnc23)cc1` [Compound 2], the inhibition at 10 µM under setting [1] stood at 94.6%. The same measure, in the same setting: the value for `O=C(c1c(Cl)cccc1Cl)N1CCC(Cc2ccc(F)cc2)CC1` [Compound 3] was 93.1%; that for `Cc1c(C(=O)NCc2cccs2)sc(=O)n1Cc1ccccc1` [Compound 4] was 58.2%; that for `Cc1c(C(=O)NCc2cccs2)sc(=O)n1Cc1ccccc1F` [Compound 5] was 66.1%.

For the compound `Cc1c(C(=O)NCc2ccco2)sc(=O)n1Cc1ccccc1F` [Compound 7], the inhibition at 10 µM under setting [1] was found to be 85.8%.
